Measured values published in patent US10478404B2, “Materials, methods and devices for altering cell reactivity” (The Arizona Board of Regents on behalf of The University of …, priority 2014, dated 2019).

Columns and labels:
[1] = test system: Platelet rich plasma (PRP); assay: Light transmission aggregometry (LTA) with chemical agonists; format: cell-based, Human
Method: (§1) Human blood was collected from healthy volunteers in citrated buffers. Platelet rich plasma (PRP) and gel-filtered platelets (GFP) were isolated as previously described (Girdhar, et al., PLOS One, 7(3):e32463 (2012)) then treated with percentages of DMSO (v/v) ranging from 0.95%-60%. Platelet activity state (PAS) assay of GFP sheared at 30 dyne/cm^2 via con-plate viscometer and light transmission aggregometry (LTA) of PRP and GFP induced by ADP and collagen were performed.
(§2) Light transmission aggregometry (LTA) was performed to detect platelet desensitization using arachidonic acid, ADP, collagen, epinephrine, and ristocetin. Platelets were fixed and visualized at the varying DMSO treatments under scanning electron microscopy (SEM). […] DMSO has no effect on ristocetin-induced platelet aggregation.
To examine whether membrane modulation impacted biochemical as well as shear-mediated platelet activation the following study was performed. Platelet rich plasma (PRP) was pre-incubated with varying concentrations of DMSO. PRP was then exposed to a variety of chemical agonists (ADP, Col, EpPi, Arac. Acid, or none (control)).

platelets [2] = assay: Hyper-shear exposure via platelet hammer device (PAS); format: cell-based, Human; conditions: 0.95% (v/v) DMSO pre-incubation; shear 100-1000 dynes/cm^2; FIG. 1B
Method: To further extend the above observation, platelets were pre-incubated with DMSO, at 0.95% (v/v), and then subjected to much higher levels of shear via a platelet hammer device, i.e. shear from 100-1000 dynes/cm^2. […] These levels correlate with the levels experienced in VADs and other high shear MCS devices.

platelets [3] = assay: Scanning electron microscopy (SEM) of fixed DMSO-treated platelets; format: cell-based, Human; conditions: 5% and 10% DMSO
Method: as §2

[4] = test system: gel-filtered platelets (GFP); assay: Platelet activity state (PAS) assay of gel-filtered platelets under constant shear (cone-plate viscometer); format: cell-based, Human
Method: as §1
In some experiments, varying percentages of DMSO were added to platelets, which were then subjected to defined sheer.

GFP = assay: Shear-mediated platelet activation with actin stabilizing/depolymerization drugs; format: cell-based, human; conditions: 70 dyn shearing force; compared to control cells with 0.1% DMSO; FIG. 2B
Method: Platelets were collected from human volunteers and PRP obtained as described above. Platelet-activation was determined (biochemical vs. shear mediated) was determined within the context of modulation of intracellular microfilament action, as measured by the effect on actin was determined. Actin is a globular multi-functional protein that forms microfilaments. It is found in almost all eukaryotic cells where it may be present at concentrations of over 100 μM. An actin protein's mass is roughly 42-kDa and it is the monomeric subunit of two types of filaments in cells: microfilaments, one of the three major components of the cytoskeleton, and thin filaments, part of the contractile apparatus in muscle cells. It can be present as either a free monomer called G-actin (globular) or as part of a linear polymer microfilament called F-actin (filamentous).
Whole blood aggregation was determined in the presence of ADP in cells treated with cytochalasin B (FIG. 2A). Cystochalasin B inhibits both the rate of actin polymerization and the interaction of actin filaments in solution. Maclean-Fletcher, Cell, 20(2):329-41 (1980). The effect of actin stabilizing/depolymerization drugs (Jasplakinolide and cystochalasin B) in shear-mediated platelet activation was measured in GFP. […]

platelets [5] = assay: Shear-induced platelet activation (PAS) with membrane modulators; format: cell-based, human
Method: Platelets were obtained as previously described and the effect of […] on biochemical or shear-induced (70 dyn shearing force) platelet activation was determined. Membrane modulation was effected using hydrophobic molecules such as Docosahexaenoic acid (DHA) and Eicosapentaenoic acid (EPA), the structures of which are shown below.
Shear-mediated platelet activation was also measured in the presence of DHA, EPA and wild salmon oil (FIG. 4B-C).
Shear-mediated and biochemical mediated platelet activation was also measured in the presence of the amphipathic molecules, cholesterol and lecithin. Cholesterol adds firmness and integrity to the plasma membrane and prevents it from becoming overly fluid i.e., cholesterol helps the membrane maintain its fluidity. In the studies including cholesterol, cholesterol-treated cells were compared with cells treated with 0.1% DMSO.

C[S+](C)[O-] [DMSO, dimethysulfoxide]
ristocetin-induced platelet aggregation [1]: no effect
collagen-induced PRP aggregation ([1]; 0.95% to 10% DMSO): limited effect
epinephrine-induced PRP aggregation ([1]; 0.95% to 10% DMSO): limited effect
arachidonic acid-induced aggregation ([1]; 5% DMSO): inhibition
maximal aggregation (LTA) ([1]; 5% DMSO-pretreated platelets): lower maximal aggregation
platelet aggregation rate (LTA) ([1]; 5% DMSO-pretreated platelets): slower platelet aggregation rate
ADP-induced aggregation ([1]; 10% DMSO): inhibition
agonist-mediated platelet activation ([1]; PRP pre-incubated with varying DMSO, ADP, Col, Epi, Arac. Acid, inhibitory peak at higher DMSO concentrations than for shear, FIG. 1C): reduction of agonist-mediated activation
tolerance of hyper shear (platelets [2]): able to tolerate much higher levels of sheer
filopodia (SEM of platelets) (platelets [3]): significant reduction
protection of platelets from shear-induced activation in comparison to control (PAS assay) ([4]; 5% DMSO, 5 min of 30 dyne/cm^2): up to 90%
DMSO percentage giving the same level of protection at longer shear exposure ([4]; 10 min of 30 dyne/cm^2): 10%
most effective DMSO percentage in protecting platelets from activation by constant shear stress and aggregation by chemical agonists ([4]; DMSO range tested 0.95%-60%): 5 % (v/v)
DMSO concentration with best protective effect ([4]; shear 30-70 dynes/cm^2, FIG. 1A): 1-5%

C/C1=C\[C@H](C)C[C@H](C)OC(=O)C[C@H](c2ccc(O)cc2)NC(=O)[C@@H](Cc2c(Br)[nH]c3ccccc23)N(C)C(=O)[C@H](C)NC(=O)[C@@H](C)C1 [Jasplakinolide]
shear-mediated platelet activation over time (GFP): less activation over time

CC(C)CCC[C@@H](C)[C@H]1CC[C@H]2[C@@H]3CC=C4C[C@@H](O)CC[C@]4(C)[C@H]3CC[C@]12C [cholesterol]
shear-induced platelet activation (platelets [5]; 20 μM and 200 μM cholesterol, 30 dyn and 70 dyn, compared with 0.1% DMSO, FIG. 4D-E): reduces shear-induced platelet activation

lecithin
platelet sensitivity to shear stress (platelets [5]; Example 4 data): increase platelet sensitivity to shear stress
shear-induced platelet activation as measured by PAS (platelets [5]; lecithin 25 ug/ml, 30 dyn, GFP, compared to controls, FIG. 4G): increases
